Source: US12064508B2, “Compositions and methods for nasal administration of drugs to brain and for systemic effect” (priority 2017, dated 2024)

Test system: nasal cavity
Test: Local safety: histopathology of the nasal cavity
Conditions: intranasal 15 μl/rat twice a day for one week
Procedure: The effect of phospholipid magnesome on the nasal cavity was evaluated in rats.
The animals received the treatments twice a day for one week. […] Sections of the nasal cavity were cut serially at 7 μm thickness and stained with Hematoxylin & Eosin. […] Local toxicity was assessed by evaluating the histopathological alterations in different regions of the nasal cavity (cartilage and turbinate bone, lamina propria and submucosa, mucosal epithelium and lumen).

Structure (SMILES): CCCCCCCCCCCCOS(=O)(=O)[O-].[Na+] [SLS, Sodium lauryl sulfate]
- histopathological findings in the nasal cavity: minimal proteinaceous material in the lumen and focal aggregations of neutrophils
